Measured values as given in ChEMBL document CHEMBL1134590, “Determination of the binding specificity of an integral membrane protein by saturation transfer difference NMR: RGD peptide ligands binding to integrin alphaIIbbeta3” (J Med Chem, 2001).

Target: Integrin alpha-IIb/beta-3 (Homo sapiens, UniProt P05106+P08514)
Test: Inhibition of integrin alphaIIb-beta3 binding
Type: protein-complex assay

Integrin alpha-IIb/beta-3, sequence (P05106 27-788 limits assumed): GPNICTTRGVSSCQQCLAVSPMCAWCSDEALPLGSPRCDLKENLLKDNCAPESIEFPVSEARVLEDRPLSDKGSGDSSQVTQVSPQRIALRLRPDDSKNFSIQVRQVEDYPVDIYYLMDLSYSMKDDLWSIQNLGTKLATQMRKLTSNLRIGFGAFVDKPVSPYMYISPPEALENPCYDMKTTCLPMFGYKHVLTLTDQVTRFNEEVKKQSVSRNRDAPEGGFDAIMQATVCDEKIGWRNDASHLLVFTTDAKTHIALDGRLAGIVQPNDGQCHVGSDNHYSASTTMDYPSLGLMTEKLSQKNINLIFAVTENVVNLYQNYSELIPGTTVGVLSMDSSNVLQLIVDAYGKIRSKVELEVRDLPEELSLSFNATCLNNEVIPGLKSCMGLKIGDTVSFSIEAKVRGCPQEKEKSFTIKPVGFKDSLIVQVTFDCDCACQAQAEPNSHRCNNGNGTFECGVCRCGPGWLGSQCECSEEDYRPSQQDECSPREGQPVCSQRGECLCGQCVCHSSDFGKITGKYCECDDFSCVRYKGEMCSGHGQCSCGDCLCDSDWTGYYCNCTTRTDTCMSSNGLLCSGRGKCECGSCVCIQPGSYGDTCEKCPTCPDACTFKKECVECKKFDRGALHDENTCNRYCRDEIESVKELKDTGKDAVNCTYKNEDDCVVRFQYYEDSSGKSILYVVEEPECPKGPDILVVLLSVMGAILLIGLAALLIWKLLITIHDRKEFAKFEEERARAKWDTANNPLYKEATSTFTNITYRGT
Integrin alpha-IIb/beta-3, sequence (P08514 32-887 limits assumed): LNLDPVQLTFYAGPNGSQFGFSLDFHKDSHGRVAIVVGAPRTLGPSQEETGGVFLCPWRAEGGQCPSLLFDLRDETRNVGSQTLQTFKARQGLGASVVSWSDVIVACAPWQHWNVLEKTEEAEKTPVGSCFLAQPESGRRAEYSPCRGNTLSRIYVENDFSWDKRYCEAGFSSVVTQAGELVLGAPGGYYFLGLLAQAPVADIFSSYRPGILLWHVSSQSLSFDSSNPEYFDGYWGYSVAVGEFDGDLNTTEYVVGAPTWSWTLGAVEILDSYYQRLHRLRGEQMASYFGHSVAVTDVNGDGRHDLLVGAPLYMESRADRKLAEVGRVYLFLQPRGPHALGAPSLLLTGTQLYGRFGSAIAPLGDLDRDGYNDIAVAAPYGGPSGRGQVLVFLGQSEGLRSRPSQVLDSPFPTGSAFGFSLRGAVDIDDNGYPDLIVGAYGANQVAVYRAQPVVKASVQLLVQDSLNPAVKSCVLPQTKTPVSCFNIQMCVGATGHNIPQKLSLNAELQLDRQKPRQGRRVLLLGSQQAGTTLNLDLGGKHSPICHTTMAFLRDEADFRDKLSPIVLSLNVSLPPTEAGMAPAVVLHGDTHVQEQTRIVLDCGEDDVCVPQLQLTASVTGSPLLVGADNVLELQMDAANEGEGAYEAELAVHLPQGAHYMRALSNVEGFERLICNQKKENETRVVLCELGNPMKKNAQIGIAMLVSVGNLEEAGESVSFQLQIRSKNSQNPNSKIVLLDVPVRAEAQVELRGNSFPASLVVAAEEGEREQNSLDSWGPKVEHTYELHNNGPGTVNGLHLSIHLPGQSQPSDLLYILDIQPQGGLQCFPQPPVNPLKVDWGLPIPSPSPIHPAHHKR
Integrin alpha-IIb/beta-3, sequence (P08514 891-1039 limits assumed): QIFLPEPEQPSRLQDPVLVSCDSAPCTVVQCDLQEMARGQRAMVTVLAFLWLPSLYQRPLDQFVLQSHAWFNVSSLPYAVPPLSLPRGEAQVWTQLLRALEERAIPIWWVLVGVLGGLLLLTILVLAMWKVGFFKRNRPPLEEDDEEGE

IC50: > 1000 µM
Compound: N=C(N)NCCC[C@H](N)C(=O)NCC(=O)N[C@@H](CC(=O)O)C(=O)O
